Laboratory results published in US10448639B2, “Fungicidal pyrazoles” (FMC CORPORATION, priority 2009, dated 2019).
Marks after values point to notes of the source that are not given here.

Key:
[1] = tested on: Erysiphe graminis f sp. tritici; assay: Test J: wheat powdery mildew, preventive spray on wheat seedlings, visual disease rating; settings: wheat powdery mildew, preventive spray; for Test J rating (% disease control): 100 = 100% disease control, 0 = no control
[2] = tested on: Alternaria solani; assay: Test C: tomato early blight, preventive spray on tomato seedlings, visual disease rating; settings: tomato early blight, preventive spray; for Test C rating (% disease control): 100 = 100% disease control, 0 = no control
[3] = tested on: Septoria nodorum; assay: Test F: Septoria glume blotch, preventive spray on wheat seedlings, visual disease rating; settings: preventive spray; for Test F rating (% disease control): Septoria glume blotch on wheat, 100 = 100% disease control, 0 = no control
[4] = tested on: Puccinia recondita f. sp. tritici; assay: Test I: wheat leaf rust, preventive spray on wheat seedlings, visual disease rating; settings: wheat leaf rust, preventive spray; for Test I rating (% disease control): 100 = 100% disease control, 0 = no control
[5] = tested on: Septoria tritici; assay: Test G: wheat leaf blotch, preventive spray on wheat seedlings, visual disease rating; settings: wheat leaf blotch, preventive spray; for Test G rating (% disease control): 100 = 100% disease control, 0 = no control
[6] = tested on: Puccinia recondita f. sp. tritici; assay: Test H: wheat leaf rust, curative spray on inoculated wheat seedlings, visual disease rating; settings: wheat leaf rust, curative spray; for Test H rating (% disease control): 100 = 100% disease control, 0 = no control
[7] = tested on: Botrytis cinerea; assay: Test B: tomato Botrytis, preventive spray on tomato seedlings, visual disease rating; settings: tomato Botrytis, preventive spray; for Test B rating (% disease control): 100 = 100% disease control, 0 = no control
[8] = rating marked with asterisk (different test condition, key not given)

| Compound | Test J rating (% disease control), value marked * [1, 8] | Test C rating (% disease control), value marked * [2, 8] | Test F rating (% disease control), value marked * ([3]; Septoria glume blotch, rating marked with asterisk (different test condition, key not given)) | Test I rating (% disease control), value marked * [4, 8] | Test G rating (% disease control), value marked * [5, 8] | Test H rating (% disease control), value marked * [6, 8] | Test B rating (% disease control), value marked * [7, 8] | Test J rating (% disease control) [1] [%] | Test C rating (% disease control) [2] [%] | Test F rating (% disease control) [3] [%] | Test I rating (% disease control) [4] [%] | Test G rating (% disease control) [5] [%] | Test H rating (% disease control) [6] [%] | Test B rating (% disease control) [7] [%] |
| --- | --- | --- | --- | --- | --- | --- | --- | --- | --- | --- | --- | --- | --- | --- |
| Cc1nn(C)c(Nc2ccc(Cl)nc2Cl)c1-c1ccc(F)cc1Cl [compound 107] | 0* % | 0* % | 0* % | 24* % | 99* % | 8* % | 99* % | – | – | – | – | – | – | – |
| Cn1nc(C2CC2)c(-c2ccc(F)cc2Cl)c1Nc1ccc(F)cc1F [compound 108] | – | – | – | – | – | – | – | 97 | 0 | 0 | 16 | 98 | 0 | 97 |
| Cc1nn(C)c(Nc2ncc(F)cc2F)c1-c1c(F)cc(F)cc1F [compound 109] | – | – | – | – | – | – | – | 100 | 99 | 97 | 100 | 100 | 99 | 100 |
| Cc1nn(C)c(Nc2ccc(Cl)cc2)c1-c1c(F)cc(C#N)cc1F [compound 110] | – | – | – | – | – | – | – | 94 | 66 | 98 | 97 | 99 | 0 | 99 |
| Cc1nn(C)c(Nc2ccc(F)cc2)c1-c1c(F)cc(C#N)cc1F [compound 111] | – | – | – | – | – | – | – | 99 | 75 | 90 | 97 | 99 | 0 | 99 |
| Cc1nn(C)c(Nc2ccc(F)cc2Cl)c1-c1c(F)cc(C#N)cc1F [compound 112] | – | – | – | – | – | – | – | 100 | 98 | 99 | 100 | 99 | 53 | 100 |
| COc1ccc(Nc2c(-c3c(F)cc(C#N)cc3F)c(C)nn2C)cc1F [compound 113] | – | – | – | – | – | – | – | 48 | 47 | 0 | 95 | 100 | 8 | 99 |
| Cc1nn(C)c(Nc2ccc(F)c(F)c2)c1-c1c(F)cc(C#N)cc1F [compound 114] | – | – | – | – | – | – | – | 84 | 24 | 69 | 99 | 99 | 8 | 99 |
| Cc1nn(C)c(Nc2cccc(Cl)c2)c1-c1c(F)cc(C#N)cc1F [compound 115] | – | – | – | – | – | – | – | 0 | 0 | 0 | 91 | 100 | 0 | 99 |
| Cc1nn(C)c(Oc2cc(F)cc(C#N)c2)c1-c1ccc(F)cc1Cl [compound 116] | – | – | – | – | – | – | – | 99 | 94 | 73 | 97 | 100 | 16 | 100 |
| COc1cc(F)c(-c2c(C)nn(C)c2Nc2ccc(C#N)cc2Cl)c(F)c1 [compound 117] | – | – | – | – | – | – | – | 97 | 97 | 82 | 98 | 100 | 11 | 99 |
| Cc1nn(C)c(Oc2ccc([N+](=O)[O-])cc2Cl)c1-c1ccc(F)cc1Cl [compound 119] | – | – | – | – | – | – | – | 96 | 0 | 0 | 99 | 100 | 16 | 100 |
| Cc1nn(C)c(Nc2ccc(C#N)cc2F)c1-c1c(F)cc(F)cc1F [compound 120] | – | – | – | – | – | – | – | 99 | 99 | 94 | 99 | 100 | 0 | 100 |
| Cc1nn(C)c(Oc2c(F)cc([N+](=O)[O-])cc2F)c1-c1ccc(F)cc1Cl [compound 121] | – | – | – | – | – | – | – | 97 | 86 | 82 | 100 | 99 | 83 | 100 |
| Cc1nn(C)c(Oc2ccc(F)cc2[N+](=O)[O-])c1-c1ccc(F)cc1Cl [compound 122] | – | – | – | – | – | – | – | 0 | 0 | 0 | 0 | 0 | 11 | 0 |
| COc1ccc(Nc2c(-c3c(F)cc(C#N)cc3F)c(C)nn2C)cc1 [compound 126] | – | – | – | – | – | – | – | 0 | 96 | 60 | 94 | 100 | 0 | 99 |
| COc1cc(Nc2c(-c3c(F)cc(C#N)cc3F)c(C)nn2C)ccc1F [compound 127] | – | – | – | – | – | – | – | 0 | 0 | 0 | 68 | 99 | 0 | 70 |
| COc1cc(F)c(-c2c(C)nn(C)c2Nc2ncc(F)cc2F)c(F)c1 [compound 128] | – | – | – | – | – | – | – | 100 | 100 | 97 | 100 | 99 | 66 | 100 |
| Cc1nn(C)c(Oc2ccc(Cl)c(F)c2)c1-c1c(F)cc(F)cc1F [compound 129] | – | – | – | – | – | – | – | 0 | 0 | 0 | 0 | 96 | 0 | 99 |
| Cc1nn(C)c(Oc2ccc(Br)c(F)c2)c1-c1c(F)cc(F)cc1F [compound 130] | – | – | – | – | – | – | – | 0 | 0 | 0 | 19 | 99 | 0 | 97 |
| Cc1nn(C)c(Oc2ccc([N+](=O)[O-])c(F)c2)c1-c1c(F)cc(F)cc1F [compound 131] | – | – | – | – | – | – | – | 94 | 0 | 0 | 86 | 98 | 0 | 99 |
| Cc1nn(C)c(Nc2cc(F)c(F)c(F)c2)c1-c1ccc(F)cc1Cl [compound 132] | – | – | – | – | – | – | – | 92 | 0 | 0 | 94 | 100 | 0 | 99 |
| Cc1nn(C)c(Nc2c(F)cc(F)cc2F)c1-c1c(F)cc(C#N)cc1F [compound 133] | – | – | – | – | – | – | – | 94 | 100 | 60 | 100 | 99 | 0 | 100 |
| COc1cc(F)c(Nc2c(-c3c(F)cc(C#N)cc3F)c(C)nn2C)c(F)c1 [compound 134] | – | – | – | – | – | – | – | 0 | 0 | 0 | 41 | 99 | 0 | 99 |
